According to US20240067632A1, “WEE1 Degrading Compounds and Uses Thereof” (Bristol-Myers Squibb Company, priority 2022, published 2024):

Tests used:
WEE1 = target: T1, WEE1 (Homo sapiens, UniProt P30291+Q96SW2); assay: WEE1-ePL degradation assay (LentiX-WEE1-ePL-GSPT1-ND cells, InCELL Hunter luminescence, 4 h); assay type: cell-based; settings: 293T-LentiX WEE1-ePL cells; for 293T-LentiX WEE1-ePL Degradation 4 hr (Ymin): lower limit of the fit (0 = luciferase inhibitor, Ymax = DMSO control); for DC50: read-out: 293T-LentiX WEE1-ePL Degradation 4 hr (EC50)
T1 construct: C-terminal ePL-tagged (DiscoverX, Fremont, CA) full-length WEE1 expression construct; expressed in transfected cells; host or cells: LentiX-HEK293T (Invitrogen), lentiviral transduction; co-expressing GSPT1-GN (G576N, lacking the first 158 amino acids)
Procedure, shortened: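 Degradation EC50 was fitted by a four-parameter logistic model, with the upper limit taken from DMSO wells. Luminescence was read with InCELL Hunter reagent after 30 min at room temperature, following a 4 h, 37° C exposure of 2500 cells/well. Cells were LentiX-HEK293T carrying ePL-tagged full-length WEE1, dosed in 10 points (3-fold) from 1 or 10 uM.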

MKN45 cells = assay: MKN45 cell proliferation assay (Cell-Titer-Glo, 120 h); assay type: cell-based; settings: for EC50: Homo sapiens, MKN-45, 120 h, Cell-Titer-Glo, growth inhibition, read-out: MKN45 Cell Prolif. 120 hr (EC50); for MKN45 Cell Prolif. 120 hr (Ymin-Obs): minimal percent of DMSO control observed in the concentrations tested
Description: MKN45 cells were obtained from Celgene internal cell banks and cultured in RPMI complete media (RPMI-1640, 1× Penicillin/Streptomycin, 1× glutamine, 1× Sodium Pyruvate, Non-essential Amino Acids, 10% Fetal Bovine serum, all component from Thermo-Fisher). Compounds were dispensed into 384-well plates using an HP DE300 compound printer in triplicate with 8 compounds on each plate. For each compound, a 10-point dose response was printed at half-log dilutions starting at either 1 uM or 10 uM. The DMSO concentration was kept constant for a final assay concentration of 0.1% per well assuming 50 ul final media volume. Compound plates were sealed and frozen at −20 C until use.
For each assay batch, compound plates were thawed and allowed to reach room temperature, and cells were seeded at 400 cells per well in 50 ul complete RPMI media. After 120 hours of incubation at 37 C and 5% CO2, cells were lysed by addition of 25 μL of Cell-Titer-Glo Reagent (Promega Corporation, Madison, WI), as per manufacturer's instructions, protected from light, shaken for 45 minutes, and total luminescence read by a Perkin Elmer Envision plate reader. Total luminescence signal is linearly correlated with cell number remaining in the well.
Luminescence data was processed per plate by subtracting reagent-only “blank” well luminescence from all measured values and calculating a percent of DMSO control value for each treatment well. Then, to determine the half-maximal effective concentration (EC50) values for cell growth inhibition, a four parameter logistic model was fit to the data for each DMSO-normalized compound: Sigmoidal Dose-Response Model: (FIT=(A+((B−A)/1+((C/x)^D)))) where C is the inflection point (EC50), D is the Hill slope, and A and B are the low and high limits of the fit respectively. The lower limit of the fit (value A) is referred to as Ymin-calculated. The minimal percent of DMSO control that is observed in the concentrations tested for each compound is labeled as “Ymin-obs”, and was recorded and reported in the tables. Sigmoidal fit curves were processed and evaluated using Activity Base (IDBS, Alameda, CA).

| Structure (SMILES) | 293T-LentiX WEE1-ePL Degradation 4 hr (Ymin) (WEE1) | DC50 (WEE1) [nM] | EC50 (MKN45 cells) [nM] | MKN45 Cell Prolif. 120 hr (Ymin-Obs) (MKN45 cells) |
| --- | --- | --- | --- | --- |
| O=C1CCC(N2Cc3cc(O[C@H]4CCN(Cc5cnc6c(c5)CCOC6)C4)ccc3C2=O)C(=O)N1 (stereo partly drawn) [3-(1-oxo-5-{[(3S)-1-({5H,6H,8H-pyrano[3,4-b]pyridin-3-yl}methyl)pyrrolidin-3-yl]oxy}-2,3-dihydro-1H-isoindol-2-yl)piperidine-2,6-dione] | 30 | 27.3 | 252 | 8.89 |
| O=C1CCC(N2Cc3cc(O[C@H]4CCN(Cc5ccnc6c5CCOC6)C4)ccc3C2=O)C(=O)N1 (stereo partly drawn) [3-(1-oxo-5-{[(3S)-1-({5H,6H,8H-pyrano[3,4-b]pyridin-4-yl}methyl)pyrrolidin-3-yl]oxy}-2,3-dihydro-1H-isoindol-2-yl)piperidine-2,6-dione] | 51 | 62.7 | 1280 | 56.39 |
| O=C1CCC(N2Cc3cc(O[C@H]4CCN(Cc5cnc6c(c5)COCC6)C4)ccc3C2=O)C(=O)N1 (stereo partly drawn) [3-(1-oxo-5-{[(3S)-1-({5H,7H,8H-pyrano[4,3-b]pyridin-3-yl}methyl)pyrrolidin-3-yl]oxy}-2,3-dihydro-1H-isoindol-2-yl)piperidine-2,6-dione] | 35 | 39.9 | 456 | 11.67 |
| O=C1CCC(N2Cc3cc(O[C@H]4CCN(Cc5cc6cc([C@H]7CCOC7)ccc6cn5)C4)ccc3C2=O)C(=O)N1 (stereo partly drawn) [3-(1-oxo-5-{[(3S)-1-({6-[(3R)-oxolan-3-yl]isoquinolin-3-yl}methyl)pyrrolidin-3-yl]oxy}-2,3-dihydro-1H-isoindol-2-yl)piperidine-2,6-dione] | 28 | 1.99 | 3.39 | 6.69 |
| O=C1CCC(N2Cc3cc(O[C@H]4CCN(Cc5cc6cc([C@@H]7CCOC7)ccc6cn5)C4)ccc3C2=O)C(=O)N1 (stereo partly drawn) [3-(1-oxo-5-{[(3S)-1-({6-[(3S)-oxolan-3-yl]isoquinolin-3-yl}methyl)pyrrolidin-3-yl]oxy}-2,3-dihydro-1H-isoindol-2-yl)piperidine-2,6-dione] | 28 | 5.38 | 12.9 | 5.87 |
| O=C1CCC(N2Cc3cc(O[C@H]4CCN(Cc5cc6ccc([C@H]7CCOC7)cc6cn5)C4)ccc3C2=O)C(=O)N1 (stereo partly drawn) [3-(1-oxo-5-{[(3S)-1-({7-[(3R)-oxolan-3-yl]isoquinolin-3-yl}methyl)pyrrolidin-3-yl]oxy}-2,3-dihydro-1H-isoindol-2-yl)piperidine-2,6-dione] | 28 | 1.41 | 2.96 | 8.5 |
| O=C1CCC(N2Cc3cc(O[C@H]4CCN(Cc5cc6ccc([C@@H]7CCOC7)cc6cn5)C4)ccc3C2=O)C(=O)N1 (stereo partly drawn) [3-(1-oxo-5-{[(3S)-1-({7-[(3S)-oxolan-3-yl]isoquinolin-3-yl}methyl)pyrrolidin-3-yl]oxy}-2,3-dihydro-1H-isoindol-2-yl)piperidine-2,6-dione] | 30 | 1.66 | 1.84 | 7.635 |
| O=C1CCC(N2Cc3cc(O[C@H]4CCN(Cc5ccc6c(c5)CCCN6)C4)ccc3C2=O)C(=O)N1 (stereo partly drawn) [3-(1-oxo-5-{[(3S)-1-[(1,2,3,4-tetrahydroquinolin-6-yl)methyl]pyrrolidin-3-yl]oxy}-2,3-dihydro-1H-isoindol-2-yl)piperidine-2,6-dione] | 79 | 3330 | > 10000 | 93.175 |
| O=C1CCC(N2Cc3cc(O[C@H]4CCN(Cc5cc6ccccc6[nH]c5=O)C4)ccc3C2=O)C(=O)N1 (stereo partly drawn) [3-(1-oxo-5-{[(3S)-1-[(2-oxo-1,2-dihydroquinolin-3-yl)methyl]pyrrolidin-3-yl]oxy}-2,3-dihydro-1H-isoindol-2-yl)piperidine-2,6-dione] | 37.28 | 112 | 1710 | 30.3825 |
| O=C1CCC(N2Cc3cc(O[C@H]4CCN(Cc5ccc6[nH]c(=O)ccc6c5)C4)ccc3C2=O)C(=O)N1 (stereo partly drawn) [3-(1-oxo-5-{[(3S)-1-[(2-oxo-1,2-dihydroquinolin-6-yl)methyl]pyrrolidin-3-yl]oxy}-2,3-dihydro-1H-isoindol-2-yl)piperidine-2,6-dione] | 40.56 | 74.7 | 610 | 17.75 |
| O=C1CCC(N2Cc3cc(O[C@H]4CCN(Cc5ccc6ccc(=O)oc6c5)C4)ccc3C2=O)C(=O)N1 (stereo partly drawn) [3-(1-oxo-5-{[(3S)-1-[(2-oxo-2H-chromen-7-yl)methyl]pyrrolidin-3-yl]oxy}-2,3-dihydro-1H-isoindol-2-yl)piperidine-2,6-dione] | 55 | 28.8 | > 10000 | 85.765 |
| O=C1CCC(N2Cc3cc(O[C@H]4CCN(Cc5ccc6c(c5)OC(=O)CN6)C4)ccc3C2=O)C(=O)N1 (stereo partly drawn) [3-(1-oxo-5-{[(3S)-1-[(2-oxo-3,4-dihydro-2H-1,4-benzoxazin-7-yl)methyl]pyrrolidin-3-yl]oxy}-2,3-dihydro-1H-isoindol-2-yl)piperidine-2,6-dione] | 80 |  | > 10000 | 90.28 |
| O=C1CCC(N2Cc3cc(O[C@H]4CCN(Cc5ccnc(-c6ccccc6)c5)C4)ccc3C2=O)C(=O)N1 (stereo partly drawn) [3-(1-oxo-5-{[(3S)-1-[(2-phenylpyridin-4-yl)methyl]pyrrolidin-3-yl]oxy}-2,3-dihydro-1H-isoindol-2-yl)piperidine-2,6-dione] | 38 | 6.94 | 23 | 9.19 |
| CO[C@H]1CC[C@](C)(Nc2ccc3cc(CN4CC[C@H](Oc5ccc6c(c5)CN(C5CCC(=O)NC5=O)C6=O)C4)ccc3n2)CC1 (stereo partly drawn) [3-(1-oxo-5-{[(3S)-1-[(2-{[(1r,4r)-4-methoxy-1-methylcyclohexyl]amino}quinolin-6-yl)methyl]pyrrolidin-3-yl]oxy}-2,3-dihydro-1H-isoindol-2-yl)piperidine-2,6-dione] | 30 | 5.36 | 4.2 | 8.155 |
| CO[C@H]1CC[C@H](Nc2ccc3cc(CN4CC[C@H](Oc5ccc6c(c5)CN(C5CCC(=O)NC5=O)C6=O)C4)ccc3n2)CC1 (stereo partly drawn) [3-(1-oxo-5-{[(3S)-1-[(2-{[(1r,4r)-4-methoxycyclohexyl]amino}quinolin-6-yl)methyl]pyrrolidin-3-yl]oxy}-2,3-dihydro-1H-isoindol-2-yl)piperidine-2,6-dione] | 32.5 | 6.28 | 5.05 | 8.26 |
| CO[C@H]1CC[C@H](Oc2ccc3cc(CN4CC[C@H](Oc5ccc6c(c5)CN(C5CCC(=O)NC5=O)C6=O)C4)ccc3n2)CC1 (stereo partly drawn) [3-(1-oxo-5-{[(3S)-1-[(2-{[(1r,4r)-4-methoxycyclohexyl]oxy}quinolin-6-yl)methyl]pyrrolidin-3-yl]oxy}-2,3-dihydro-1H-isoindol-2-yl)piperidine-2,6-dione] | 30.67 | 11.5 | 9.05 | 8.57 |
| CO[C@H]1CC[C@@](C)(Nc2ccc3cc(CN4CC[C@H](Oc5ccc6c(c5)CN(C5CCC(=O)NC5=O)C6=O)C4)ccc3n2)CC1 (stereo partly drawn) [3-(1-oxo-5-{[(3S)-1-[(2-{[(1s,4s)-4-methoxy-1-methylcyclohexyl]amino}quinolin-6-yl)methyl]pyrrolidin-3-yl]oxy}-2,3-dihydro-1H-isoindol-2-yl)piperidine-2,6-dione] | 26 | 3.41 | 0.882 | 8.44 |
